Key:
Assay type in all cases: in vivo
[1] = tested on: barnyardgrass (Echinochloa crus-galli); experiment: Test G Pre-Emergence Protocol; conditions: Echinochloa crus-galli, pre-emergence, 312 h, evaluated after 13 days; for pest or weed control at 15.625 g/ha: 15.625 g ai/ha; for pest or weed control at 15.625 g/ha / pest or weed control at 250 g/ha: read-out: Barnyardgrass damage rating (100=total damage to plant; 0=no damage to plant); for pest or weed control at 62.5 g/ha: 62.5 g ai/ha, 100=total damage to plant, 0=no damage to plant, read-out: Barnyardgrass damage rating; for pest or weed control at 250 g/ha: 250 g ai/ha
Method in brief: (§1)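 Herbicidal effect was rated 13 days post-application on a scale where 100 equals total damage. Spraying took place the day after sowing, using 15.625, 62.5 or 250 g/ha of compound in a 50:50 acetone/water solution with 0.5% Tween 20.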

corn (Zea mays) [2] = experiment: Test G Pre-Emergence Protocol; conditions: evaluated after 13 days; for plant injury at 62.5 g/ha: 62.5 g ai/ha, 100=total damage to plant, 0=no damage to plant, read-out: Corn damage rating; for plant injury at 250 g/ha: 250 g ai/ha
Method in brief: as §1

[3] = tested on: giant foxtail (Setaria faberi); experiment: Test G Pre-Emergence Protocol; conditions: Setaria faberi, pre-emergence, 312 h, evaluated after 13 days; for pest or weed control at 15.625 g/ha: 15.625 g ai/ha; for pest or weed control at 15.625 g/ha / pest or weed control at 250 g/ha: read-out: Foxtail, Giant damage rating (100=total damage to plant; 0=no damage to plant); for pest or weed control at 62.5 g/ha: 62.5 g ai/ha, 100=total damage to plant, 0=no damage to plant, read-out: Foxtail, Giant damage rating; for pest or weed control at 250 g/ha: 250 g ai/ha
Method in brief: as §1

[4] = tested on: ivy-leaved morning glory (Ipomoea hederacea); experiment: Test G Pre-Emergence Protocol; conditions: evaluated after 13 days; for pest or weed control at 15.625 g/ha: 15.625 g ai/ha; for pest or weed control at 15.625 g/ha / pest or weed control at 250 g/ha: read-out: Morningglory, Ivy-leaved damage rating (100=total damage to plant; 0=no damage to plant); for pest or weed control at 250 g/ha: 250 g ai/ha
Method in brief: as §1

[5] = tested on: redroot pigweed (Amaranthus retroflexus); experiment: Test G Pre-Emergence Protocol; conditions: evaluated after 13 days; for pest or weed control at 15.625 g/ha: 15.625 g ai/ha; for pest or weed control at 62.5 g/ha: 62.5 g ai/ha, 100=total damage to plant, 0=no damage to plant, read-out: Pigweed, Redroot damage rating
Method in brief: as §1

[6] = tested on: velvetleaf (Abutilon theophrasti); experiment: Test G Pre-Emergence Protocol; conditions: evaluated after 13 days; for pest or weed control at 62.5 g/ha: 62.5 g ai/ha, 100=total damage to plant, 0=no damage to plant, read-out: Velvetleaf damage rating; for pest or weed control at 250 g/ha: 250 g ai/ha
Method in brief: as §1

[7] = tested on: barnyardgrass (Echinochloa crus-galli); experiment: Test G Post-Emergence Protocol; conditions: Echinochloa crus-galli, post-emergence, 312 h, read-out: Barnyardgrass damage rating; for pest or weed control at 15.625 g/ha: 15.625 g ai/ha, evaluated after 13 days (100=total damage to plant; 0=no damage to plant); for pest or weed control at 62.5 g/ha: 62.5 g ai/ha; for pest or weed control at 62.5 g/ha / pest or weed control at 250 g/ha: evaluated after 13 days, 100=total damage to plant, 0=no damage to plant; for pest or weed control at 250 g/ha: 250 g ai/ha
Method in brief: (§2)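 Damage was rated 13 days after treatment from 0 (none) to 100 (plant killed). Compound was applied as a spray at 15.625, 62.5 or 250 g/ha in 50:50 acetone/water containing 0.5% Tween 20, onto 8-day-old potted plants kept in a glasshouse (24/16 °C, 14 h light, 65% humidity).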

corn (Zea mays) [8] = experiment: Test G Post-Emergence Protocol; conditions: Zea mays, post-emergence, 312 h, read-out: Corn damage rating; for plant injury at 15.625 g/ha: 15.625 g ai/ha, evaluated after 13 days (100=total damage to plant; 0=no damage to plant); for plant injury at 62.5 g/ha: 62.5 g ai/ha; for plant injury at 62.5 g/ha / plant injury at 250 g/ha: evaluated after 13 days, 100=total damage to plant, 0=no damage to plant; for plant injury at 250 g/ha: 250 g ai/ha
Method in brief: as §2

[9] = tested on: giant foxtail (Setaria faberi); experiment: Test G Post-Emergence Protocol; conditions: Setaria faberi, post-emergence, 312 h, read-out: Foxtail, Giant damage rating; for pest or weed control at 15.625 g/ha: 15.625 g ai/ha, evaluated after 13 days (100=total damage to plant; 0=no damage to plant); for pest or weed control at 62.5 g/ha: 62.5 g ai/ha; for pest or weed control at 62.5 g/ha / pest or weed control at 250 g/ha: evaluated after 13 days, 100=total damage to plant, 0=no damage to plant; for pest or weed control at 250 g/ha: 250 g ai/ha
Method in brief: as §2

[10] = tested on: ivy-leaved morning glory (Ipomoea hederacea); experiment: Test G Post-Emergence Protocol; conditions: for pest or weed control at 62.5 g/ha: 62.5 g ai/ha; for pest or weed control at 62.5 g/ha / pest or weed control at 250 g/ha: evaluated after 13 days, 100=total damage to plant, 0=no damage to plant; for pest or weed control at 250 g/ha: 250 g ai/ha
Method in brief: as §2

[11] = tested on: redroot pigweed (Amaranthus retroflexus); experiment: Test G Post-Emergence Protocol; conditions: Amaranthus retroflexus, post-emergence, 312 h, read-out: Pigweed, Redroot damage rating; for pest or weed control at 15.625 g/ha: 15.625 g ai/ha, evaluated after 13 days (100=total damage to plant; 0=no damage to plant); for pest or weed control at 62.5 g/ha: 62.5 g ai/ha; for pest or weed control at 62.5 g/ha / pest or weed control at 250 g/ha: evaluated after 13 days, 100=total damage to plant, 0=no damage to plant; for pest or weed control at 250 g/ha: 250 g ai/ha
Method in brief: as §2

[12] = tested on: velvetleaf (Abutilon theophrasti); experiment: Test G Post-Emergence Protocol; conditions: for pest or weed control at 15.625 g/ha: 15.625 g ai/ha, evaluated after 13 days (100=total damage to plant; 0=no damage to plant); for pest or weed control at 250 g/ha: 250 g ai/ha
Method in brief: as §2

[13] = Zea mays, pre-emergence, 312 h, read-out: Corn damage rating (100=total damage to plant; 0=no damage to plant)
[14] = Amaranthus retroflexus, pre-emergence, 312 h, read-out: Pigweed, Redroot damage rating (100=total damage to plant; 0=no damage to plant)
[15] = Amaranthus retroflexus, pre-emergence, 312 h
[16] = Abutilon theophrasti, pre-emergence, 312 h
[17] = Abutilon theophrasti, pre-emergence, 312 h, read-out: Velvetleaf damage rating (100=total damage to plant; 0=no damage to plant)
[18] = Ipomoea, post-emergence, 312 h, read-out: Morningglory, Ivy-leaved damage rating
[19] = Abutilon theophrasti, post-emergence, 312 h, read-out: Velvetleaf damage rating
[20] = Abutilon theophrasti, post-emergence, 312 h, evaluated after 13 days, 100=total damage to plant, 0=no damage to plant, read-out: Velvetleaf damage rating

SMILES | pest or weed control at 15.625 g/ha [1] | pest or weed control at 62.5 g/ha [1] | pest or weed control at 250 g/ha [1] | plant injury at 62.5 g/ha (corn (Zea mays) [2]; Zea mays, pre-emergence, 312 h) | plant injury at 250 g/ha (corn (Zea mays) [2]; [13]) | pest or weed control at 15.625 g/ha [3] | pest or weed control at 62.5 g/ha [3] | pest or weed control at 250 g/ha [3] | pest or weed control at 15.625 g/ha ([4]; Ipomoea, pre-emergence, 312 h) | pest or weed control at 250 g/ha ([4]; Ipomoea, pre-emergence, 312 h) | pest or weed control at 15.625 g/ha [5, 14] | pest or weed control at 62.5 g/ha [5, 15] | pest or weed control at 62.5 g/ha [6, 16] | pest or weed control at 250 g/ha [6, 17] | pest or weed control at 15.625 g/ha [7] | pest or weed control at 62.5 g/ha [7] | pest or weed control at 250 g/ha [7] | plant injury at 15.625 g/ha (corn (Zea mays) [8]) | plant injury at 62.5 g/ha (corn (Zea mays) [8]) | plant injury at 250 g/ha (corn (Zea mays) [8]) | also measured
CN1C[C@H](c2cccc(C(F)(F)F)c2)[C@@H](C(=O)Nc2cccc(F)n2)C1=O (racemic) [Compound 1671] | 70% | 90% | 90% | 80% | 80% | 80% | 90% | 90% | 10% | 70% | 0% | 30% | 30% | 60% | 70% | 70% | 80% | 60% | 70% | 80% | Corn damage rating (100=total damage to plant; 0=no damage to plant) (corn (Zea mays) [2]; 15.625 g ai/ha): 30; Morningglory, Ivy-leaved damage rating ([4]; 62.5 g ai/ha, 100=total damage to plant, 0=no damage to plant): 20; Pigweed, Redroot damage rating (100=total damage to plant; 0=no damage to plant) ([5]; 250 g ai/ha): 50; Velvetleaf damage rating (100=total damage to plant; 0=no damage to plant) ([6]; 15.625 g ai/ha): 20; pest or weed control at 15.625 g/ha [9]: 70%; pest or weed control at 62.5 g/ha [9]: 80%; pest or weed control at 250 g/ha [9]: 80%; Morningglory, Ivy-leaved damage rating ([10]; 15.625 g ai/ha, evaluated after 13 days (100=total damage to plant; 0=no damage to plant)): 0; pest or weed control at 62.5 g/ha [10, 18]: 70%; pest or weed control at 250 g/ha [10, 18]: 50%; pest or weed control at 15.625 g/ha [11]: 10%; pest or weed control at 62.5 g/ha [11]: 30%; pest or weed control at 250 g/ha [11]: 50%; Velvetleaf damage rating ([12]; 62.5 g ai/ha, evaluated after 13 days, 100=total damage to plant, 0=no damage to plant): 10; pest or weed control at 15.625 g/ha [12, 19]: 0%; pest or weed control at 250 g/ha [12, 20]: 40%
Cc1ccc([C@H]2CN(C)C(=O)[C@@H]2C(=O)Nc2ccc3cccnc3n2)cc1 (racemic) [Compound 1675] | 0% | 0% | 0% | 0% | 0% | 0% | 0% | 10% | 0% | 0% | 0% | 0% | 0% | 0% | 0% | 0% | 0% | 0% | 0% | 0% | plant injury at 15.625 g/ha (corn (Zea mays) [2]; Zea mays, pre-emergence, 312 h, 15.625 g ai/ha, read-out: Corn damage rating (100=total damage to plant; 0=no damage to plant)): 0%; pest or weed control at 62.5 g/ha ([4]; Ipomoea, pre-emergence, 312 h, 62.5 g ai/ha, 100=total damage to plant, 0=no damage to plant, read-out: Morningglory, Ivy-leaved damage rating): 0%; pest or weed control at 250 g/ha ([5]; Amaranthus retroflexus, pre-emergence, 312 h, 250 g ai/ha, read-out: Pigweed, Redroot damage rating (100=total damage to plant; 0=no damage to plant)): 0%; pest or weed control at 15.625 g/ha ([6]; Abutilon theophrasti, pre-emergence, 312 h, 15.625 g ai/ha, read-out: Velvetleaf damage rating (100=total damage to plant; 0=no damage to plant)): 0%; pest or weed control at 15.625 g/ha [9]: 0%; pest or weed control at 62.5 g/ha [9]: 0%; pest or weed control at 250 g/ha [9]: 20%; pest or weed control at 15.625 g/ha ([10]; Ipomoea, post-emergence, 312 h, 15.625 g ai/ha, evaluated after 13 days (100=total damage to plant; 0=no damage to plant), read-out: Morningglory, Ivy-leaved damage rating): 0%; pest or weed control at 62.5 g/ha [10, 18]: 0%; pest or weed control at 250 g/ha [10, 18]: 0%; pest or weed control at 15.625 g/ha [11]: 0%; pest or weed control at 62.5 g/ha [11]: 0%; pest or weed control at 250 g/ha [11]: 0%; pest or weed control at 15.625 g/ha [12, 19]: 0%; pest or weed control at 62.5 g/ha ([12]; Abutilon theophrasti, post-emergence, 312 h, 62.5 g ai/ha, evaluated after 13 days, 100=total damage to plant, 0=no damage to plant, read-out: Velvetleaf damage rating): 0%; pest or weed control at 250 g/ha [12, 20]: 10%
